Laboratory results taken from the supplement of paper PMC10307832.

Legend:
Assay in all cases: relative viability (nuclei count vs DMSO), 5 days (fraction); higher = more cells survive
AZ628 = compound: CC1=C(C=C(C=C1)NC(=O)C2=CC(=CC=C2)C(C)(C)C#N)NC3=CC4=C(C=C3)N=CN(C4=O)C [AZ628]
Summary of the method: (§1)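 Nuclei counted with MetaXpress define viability as the ratio of treated to vehicle wells, given as a median across plates. The lung cancer cell lines were in 1536-well plates, pinned with five √10-spaced library-drug doses and imaged at 4× after 5 days and Hoechst staining. Plates passed with control CV below 25% and at least one doubling.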

QS11 = compound: C1CC2=C(C1)C=C(C=C2)OC3=NC(=C4C(=N3)N(C=N4)CC5=CC=C(C=C5)C6=CC=CC=C6)N[C@@H](CC7=CC=CC=C7)CO [QS11]
Summary of the method: as §1

Darinaparsin = compound: C[As](C)SC[C@H](NC(=O)CC[C@H](N)C(=O)O)C(=O)NCC(=O)O [Darinaparsin]
Summary of the method: as §1

Row | Cell Line | relative viability (AZ628; 0.08 µM) | relative viability (AZ628; 0.253 µM) | relative viability (AZ628; 0.8 µM) | relative viability (AZ628; 2.53 µM) | relative viability (AZ628; 8 µM) | relative viability (QS11; 0.08 µM) | relative viability (QS11; 0.253 µM) | relative viability (QS11; 0.8 µM) | relative viability (QS11; 2.53 µM) | relative viability (QS11; 8 µM) | relative viability (Darinaparsin; 0.08 µM) | relative viability (Darinaparsin; 0.8 µM) | relative viability (Darinaparsin; 2.53 µM) | relative viability (Darinaparsin; 8 µM)
1 | NCI-H1793 | 1.1 | 0.829 | 0.957 | 0.783 | 0.61 | 0.866 | 0.807 | 1.05 | 1.07 | 1.09 | 0.981 | 0.934 | 0.707 | 1.02
2 | NCI-H2126 | 1.04 | 1 | 0.888 | 1.02 | 0.985 | 0.994 | 0.944 | 0.905 | 0.965 | 0.799 | 1.1 | 1.03 | 0.956 | 1.12
3 | BEN | 1.11 | 0.838 | 0.899 | 1.01 | 0.843 | 0.821 | 1.03 | 1.13 | 1.1 | 1.25 | 1.08 | 1.03 | 0.92 | 1.3
4 | Calu-6 | 1.02 | 0.899 | 0.754 | 0.784 | 0.207 | 1.11 | 1.06 | 0.941 | 1.1 | 1.07 | 1.2 | 0.99 | 1.01 | 1.14
5 | HCC-366 | 1.01 | 0.952 | 0.884 | 0.955 | 0.876 | 1.01 | 1.01 | – | 0.98 | 0.447 | 1.01 | 1.07 | 1.03 | 1.32
6 | LCLC-103H | 0.99 | 0.891 | 1.07 | 0.998 | 0.903 | 1.01 | 1 | 0.749 | 0.988 | 1.05 | 1.15 | 0.923 | 0.976 | 1.15
7 | NCI-H596 | 1.05 | 1.03 | 1.1 | 1.06 | 1.01 | 0.931 | 0.833 | 1.15 | 0.969 | 1.09 | 0.937 | 1.05 | 0.938 | 1.05
8 | NCI-H1944 | 1.06 | 0.917 | 0.792 | 0.729 | 0.727 | 0.999 | 0.947 | – | 0.958 | 0.884 | 1 | 0.997 | 0.959 | 1.14
9 | NCI-H1623 | 0.992 | 0.979 | 0.604 | 0.858 | 0.615 | 0.912 | 1.03 | 0.862 | 0.871 | 1.04 | 0.925 | 1.06 | 0.975 | 1.02
10 | A549 | 1.02 | 0.865 | 0.787 | 0.897 | 0.452 | 0.974 | 0.971 | 0.829 | 0.912 | 0.927 | 1 | 0.987 | 0.991 | 1.21
11 | HCC-827 | 1.03 | 1.01 | 1.03 | 1.07 | 0.839 | 1 | 1.13 | 0.813 | 1.02 | 0.931 | 1.09 | 1.02 | 1.07 | 1.16
12 | NCI-H727 | 0.777 | 0.531 | 0.389 | 0.543 | 0.294 | 0.989 | 0.975 | 0.867 | 0.935 | 0.752 | 0.895 | 0.884 | 0.986 | 1.04
13 | NCI-H1915 | 0.994 | 0.939 | 0.796 | 0.731 | 0.464 | 0.993 | 1.04 | – | 0.872 | 0.871 | 1.04 | 0.964 | 0.965 | 1.1
14 | NCI-H2347 | 0.775 | 0.895 | 0.854 | 0.76 | 0.485 | 0.938 | 1.05 | 0.873 | 0.906 | 0.906 | 1.05 | 0.961 | 0.994 | 1.19
15 | NCI-H647 | 1.01 | 0.962 | 0.798 | 0.936 | 0.732 | 0.979 | 0.856 | 0.917 | 0.956 | 0.769 | 1.08 | 0.962 | 0.896 | 1.26
16 | CAL-12T | 0.987 | 0.831 | 0.81 | 0.806 | 0.685 | 0.96 | 0.986 | 0.96 | 0.908 | 0.873 | 1.15 | 1 | 0.985 | 1.11
